Reference: ChEMBL document CHEMBL1128826, “Heteroatom effect in the PKC inhibitory activities of perhydroazepine analogs of balanol” (Bioorg Med Chem Lett, 1995)

Assays:
[1] = target: Protein kinase C eta type (Homo sapiens, UniProt P24723); test: Inhibition of human protein kinase C eta
[2] = target: Protein kinase C delta type (Homo sapiens, UniProt Q05655); test: Inhibition of human Protein kinase C delta
[3] = target: T1, Protein kinase C beta type (Homo sapiens, UniProt P05771); test: Inhibition of human Protein kinase C beta 2
[4] = target: T2, Protein kinase C zeta type (Homo sapiens, UniProt Q05513); test: Inhibition of Protein kinase C zeta
T2 sequence (Q05513 whole entry): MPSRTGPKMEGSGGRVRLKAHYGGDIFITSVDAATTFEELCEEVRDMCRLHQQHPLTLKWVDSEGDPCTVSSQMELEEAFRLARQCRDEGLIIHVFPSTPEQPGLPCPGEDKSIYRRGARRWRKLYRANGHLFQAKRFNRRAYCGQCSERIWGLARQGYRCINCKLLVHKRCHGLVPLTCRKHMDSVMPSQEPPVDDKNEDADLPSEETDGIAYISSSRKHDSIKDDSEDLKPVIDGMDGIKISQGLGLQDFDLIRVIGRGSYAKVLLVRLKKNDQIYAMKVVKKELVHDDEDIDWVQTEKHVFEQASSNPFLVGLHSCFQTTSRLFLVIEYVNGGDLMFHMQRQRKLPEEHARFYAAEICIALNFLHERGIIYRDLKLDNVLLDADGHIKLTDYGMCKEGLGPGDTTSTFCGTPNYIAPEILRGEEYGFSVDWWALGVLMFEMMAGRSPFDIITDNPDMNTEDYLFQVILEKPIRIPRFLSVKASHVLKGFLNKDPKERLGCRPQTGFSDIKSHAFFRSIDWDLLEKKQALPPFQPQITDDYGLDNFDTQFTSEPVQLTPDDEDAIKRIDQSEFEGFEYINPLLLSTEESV

[5] = target: Protein kinase C gamma type (Homo sapiens, UniProt P05129); test: Inhibition of human Protein kinase C gamma
[6] = target: T1, Protein kinase C beta type; test: Inhibition of human Protein kinase C beta 1
[7] = target: Protein kinase C alpha type (Homo sapiens, UniProt P17252); test: Inhibition of human Protein kinase C alpha
[8] = target: T3, Protein kinase C epsilon type (Homo sapiens, UniProt Q02156); test: Inhibition of human Protein kinase C epsilon
T3 sequence (Q02156 whole entry): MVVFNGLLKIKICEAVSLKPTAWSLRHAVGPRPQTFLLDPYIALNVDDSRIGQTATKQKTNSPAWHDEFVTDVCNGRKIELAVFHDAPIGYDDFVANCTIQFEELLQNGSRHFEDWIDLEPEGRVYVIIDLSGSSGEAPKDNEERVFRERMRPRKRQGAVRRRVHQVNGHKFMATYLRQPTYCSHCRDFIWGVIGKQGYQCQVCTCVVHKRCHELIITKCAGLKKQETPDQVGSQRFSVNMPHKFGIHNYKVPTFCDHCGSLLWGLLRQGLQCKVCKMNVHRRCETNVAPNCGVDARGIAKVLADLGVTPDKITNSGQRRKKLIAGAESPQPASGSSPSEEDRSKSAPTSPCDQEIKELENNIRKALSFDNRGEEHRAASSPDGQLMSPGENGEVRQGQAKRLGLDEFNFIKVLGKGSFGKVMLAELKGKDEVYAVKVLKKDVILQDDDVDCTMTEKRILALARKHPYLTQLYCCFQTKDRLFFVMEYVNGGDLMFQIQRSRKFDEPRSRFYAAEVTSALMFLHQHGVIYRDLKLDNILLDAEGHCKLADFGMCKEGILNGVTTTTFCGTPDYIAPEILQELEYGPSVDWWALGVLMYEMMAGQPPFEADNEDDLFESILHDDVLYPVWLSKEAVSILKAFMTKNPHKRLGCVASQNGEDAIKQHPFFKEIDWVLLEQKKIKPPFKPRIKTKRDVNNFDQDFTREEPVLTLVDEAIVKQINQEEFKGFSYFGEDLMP

T1 sequence (P05771 whole entry): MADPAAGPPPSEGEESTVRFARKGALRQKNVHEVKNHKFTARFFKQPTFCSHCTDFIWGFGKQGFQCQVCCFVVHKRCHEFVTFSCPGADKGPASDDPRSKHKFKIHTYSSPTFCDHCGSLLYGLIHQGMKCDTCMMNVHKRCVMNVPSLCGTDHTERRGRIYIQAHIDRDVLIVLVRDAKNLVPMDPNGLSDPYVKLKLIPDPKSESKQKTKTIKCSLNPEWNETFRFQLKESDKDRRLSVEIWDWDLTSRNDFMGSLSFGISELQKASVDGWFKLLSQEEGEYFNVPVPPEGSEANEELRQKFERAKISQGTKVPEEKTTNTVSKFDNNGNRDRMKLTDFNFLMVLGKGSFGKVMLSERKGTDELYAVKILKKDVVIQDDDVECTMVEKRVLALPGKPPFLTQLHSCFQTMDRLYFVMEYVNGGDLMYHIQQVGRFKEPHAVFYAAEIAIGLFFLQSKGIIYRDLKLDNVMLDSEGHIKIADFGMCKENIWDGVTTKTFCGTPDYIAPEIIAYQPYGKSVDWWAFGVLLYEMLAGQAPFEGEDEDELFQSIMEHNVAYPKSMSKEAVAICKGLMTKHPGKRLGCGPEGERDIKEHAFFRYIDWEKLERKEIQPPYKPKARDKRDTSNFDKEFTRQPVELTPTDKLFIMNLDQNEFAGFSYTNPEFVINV
Chain of Protein kinase C delta type (Q05655 whole entry): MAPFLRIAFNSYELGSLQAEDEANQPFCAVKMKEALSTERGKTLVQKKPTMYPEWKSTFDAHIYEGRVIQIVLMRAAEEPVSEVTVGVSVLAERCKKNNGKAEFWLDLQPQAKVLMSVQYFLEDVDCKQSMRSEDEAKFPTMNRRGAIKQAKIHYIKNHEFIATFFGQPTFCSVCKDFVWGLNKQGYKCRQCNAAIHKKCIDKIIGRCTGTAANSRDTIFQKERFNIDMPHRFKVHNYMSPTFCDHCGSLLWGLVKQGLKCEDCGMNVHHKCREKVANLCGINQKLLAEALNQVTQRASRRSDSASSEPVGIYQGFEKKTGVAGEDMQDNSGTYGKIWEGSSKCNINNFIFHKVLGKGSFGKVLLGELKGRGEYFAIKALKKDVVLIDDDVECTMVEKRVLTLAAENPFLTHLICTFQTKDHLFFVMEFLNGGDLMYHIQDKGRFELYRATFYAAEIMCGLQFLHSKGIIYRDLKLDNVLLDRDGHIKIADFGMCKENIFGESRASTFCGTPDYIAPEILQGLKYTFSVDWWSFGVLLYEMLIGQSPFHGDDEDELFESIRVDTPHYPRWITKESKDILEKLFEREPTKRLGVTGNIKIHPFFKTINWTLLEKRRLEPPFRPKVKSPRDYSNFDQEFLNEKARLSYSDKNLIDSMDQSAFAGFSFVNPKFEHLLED
Chain of Protein kinase C eta type (P24723 whole entry): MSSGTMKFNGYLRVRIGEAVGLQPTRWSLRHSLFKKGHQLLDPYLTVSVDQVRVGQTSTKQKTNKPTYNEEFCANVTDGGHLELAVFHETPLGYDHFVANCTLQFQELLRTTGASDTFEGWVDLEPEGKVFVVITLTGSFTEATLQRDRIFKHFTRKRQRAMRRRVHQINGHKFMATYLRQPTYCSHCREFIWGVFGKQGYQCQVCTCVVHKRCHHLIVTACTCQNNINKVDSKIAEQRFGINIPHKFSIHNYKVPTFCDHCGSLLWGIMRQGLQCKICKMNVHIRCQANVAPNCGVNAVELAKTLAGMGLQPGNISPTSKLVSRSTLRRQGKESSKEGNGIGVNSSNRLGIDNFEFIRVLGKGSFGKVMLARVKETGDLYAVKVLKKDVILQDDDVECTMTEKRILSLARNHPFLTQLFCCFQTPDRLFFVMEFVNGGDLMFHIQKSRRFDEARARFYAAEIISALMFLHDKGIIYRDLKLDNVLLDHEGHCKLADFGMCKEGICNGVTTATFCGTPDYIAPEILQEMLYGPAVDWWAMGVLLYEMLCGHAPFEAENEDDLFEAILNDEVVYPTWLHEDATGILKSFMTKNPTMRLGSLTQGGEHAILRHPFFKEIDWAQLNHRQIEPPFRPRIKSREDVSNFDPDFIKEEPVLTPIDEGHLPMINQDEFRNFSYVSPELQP

SMILES	IC50 [1]	IC50 [2]	IC50 [3]	IC50 [4]	IC50 [5]	IC50 [6]	IC50 [7]	IC50 [8]
O=C(N[C@H]1CS(=O)(=O)CCC[C@H]1OC(=O)c1cc(O)c(C(=O)c2c(O)cccc2C(=O)O)c(O)c1)c1ccc(O)cc1	0.83 µM	4 µM	3.6 µM	> 150 µM	4.3 µM	5.2 µM	9.6 µM	45 µM
O=C(N[C@H]1CNCCC[C@H]1OC(=O)c1cc(O)c(C(=O)c2c(O)cccc2C(=O)O)c(O)c1)c1ccc(O)cc1 (racemic)	0.022 µM	0.032 µM	0.044 µM	3.5 µM	0.034 µM	0.032 µM	0.074 µM	–
O=C(N[C@H]1CSCCC[C@H]1OC(=O)c1cc(O)c(C(=O)c2c(O)cccc2C(=O)O)c(O)c1)c1ccc(O)cc1	0.1 µM	0.09 µM	2.4 µM	–	1 µM	3.8 µM	3.3 µM	5.9 µM
O=C(N[C@H]1CCCCC[C@H]1OC(=O)c1cc(O)c(C(=O)c2c(O)cccc2C(=O)O)c(O)c1)c1ccc(O)cc1	0.06 µM	0.09 µM	0.43 µM	> 150 µM	0.06 µM	0.22 µM	0.27 µM	0.28 µM
O=C(N[C@H]1COCCC[C@H]1OC(=O)c1cc(O)c(C(=O)c2c(O)cccc2C(=O)O)c(O)c1)c1ccc(O)cc1	0.01 µM	0.09 µM	3.3 µM	> 150 µM	1 µM	2.5 µM	6.7 µM	16 µM
